“Also recorded” adds a separate entry of the source.
Assay: Hemodialysis session in a patient with end-stage renal disease who regularly develops hypotension during dialysis (Example 2)
Type: in vivo
Description: A patient with end-stage renal disease is scheduled for hemodialysis at 11 AM. The patient's resting blood pressure is 130/80 mm Hg. At 10:40 AM the day of the 11 AM hemodialysis, the patient swallows a tablet comprising 16 mg of desglymidodrine (approximately equal in activity to 20 mg of midodrine).
In a subsequent dialysis day, the patient swallows a desglymidodrine 16 mg. tablet 20 minutes before the onset of dialysis. […] Intravenous desglymidodrine is then promptly administered by a nurse by a push infusion at a dose of 8 mg.

For `COc1ccc(OC)c(C(O)CN)c1` (stereo not drawn) [desglymidodrine], the “blood pressure after treatment of intradialytic hypotension” value (8 mg intravenous push infusion after hypotension developed one hour into the dialysis session) was “blood pressure normalizes”, the “adverse symptoms during hemodialysis” value (end-stage renal disease patient, 16 mg tablet swallowed 20 minutes before hemodialysis) was “no adverse symptoms are exhibited” and the “blood pressure during hemodialysis” value (end-stage renal disease patient, 16 mg tablet swallowed 20 minutes before onset of hemodialysis) was “blood pressure stays stable; also recorded: develops hypotension”.
